In patent publication US20250042911A1, “NOVEL BENZOPYRAN DERIVATIVE AND USE THEREOF” (SPARK BIOPHARMA, INC, priority 2021, published 2025):
Structures can show the parent of a compound that is named as a salt.

Test system: human M2 macrophages
Test: Inhibition of human M2 macrophage activity, hCCL22 in culture supernatant by ELISA
Type: cell-based
Details: for EC50: hCCL22 secretion, THP-1 derived M2-like macrophages, compound present during 72 hours of differentiation; for inhibition at 5 µM / inhibition at 10 µM: Macrophage, 72 hours; for inhibition at 5 µM: hML22 inhibitory activity at 5 μM; for inhibition at 10 µM: hCCL22 inhibitory activity at 10 μM
Protocol: To obtain human M2 macrophages, human monocytes (THP-1 monocyte, CD4 expression) were stabilized in a 96-well plate for 24 hours and then incubated in culture media containing 100 ng/mL phorbal 12-myristate-13-acetate (PMA; Sigma, P8139) for 24 hours to differentiate into M0 macrophages (macrophage-like phenotype). It was confirmed that differentiated M0 macrophages had reduced CD4 expression and expressed CD11b. M0 macrophages in the plate well were washed once with culture media and incubated in culture media containing 25 ng/mL hIL-4 (Peprotech, 200-04-50) and 25 ng/mL hIL-13 (Peprotech, 200-13-50) for 72 hours to differentiate into M2-like macrophages. Test compounds were diluted by concentration in M2 differentiation media and treated simultaneously during a differentiation period of 72 hours. The inhibitory effect of the test compounds on M2 macrophages was determined by measuring hCCL22 in the medium culture supernatant cultured for 72 hours using an ELISA assay (R&D system, DMD00). The results of the activity measurements are represented in Table 3 (EC50), Table 4 ([…] inhibitory activity at 5 μM) and Table 5 (hCCL22 inhibitory activity at 10 μM).

Row | SMILES | EC50 | inhibition at 5 µM | inhibition at 10 µM
1 | CC(=O)c1ccc(-n2c(=O)n3n(c2=O)C2C(=CC3)C(C)(C)Oc3cc(N(C(C)C)C(C)C)ccc32)cc1 (centres unmarked) [Example 47, 2-(4-acetylphenyl)-10-(diisopropylamino)-7,7-dimethyl-5,12b-dihydro-1H,7H-chromeno[4,3-c][1,2,4]triazolo[1,2-a]pyridazine-1,3(2H)-dione] | 8.1 µM |  | 
2 | CC(=O)c1ccc(-n2c(=O)n3n(c2=O)C2C(=CC3)C(C)(C)Oc3c2cc(Br)c(N)c3Br)cc1 (centres unmarked) [Example 28, 2-(4-acetylphenyl)-10-amino-9,11-dibromo-7,7-dimethyl-5,12b-dihydro-1H,7H-chromeno[4,3-c][1,2,4]triazolo[1,2-a]pyridazine-1,3(2H)-dione] |  | 71.2% | 
3 | CC(=O)c1ccc(-n2c(=O)n3n(c2=O)C2C(=CC3)C(C)(C)Oc3cc(NS(C)(=O)=O)ccc32)cc1 (centres unmarked) [Example 5, N-(2-(4-acetylphenyl)-7,7-dimethyl-1,3-dioxo-2,3,5,12b-tetrahydro-1H,7H-chromeno[4,3-c][1,2,4]triazolo[1,2-a]pyridazin-10-yl)methanesulfonamide] |  |  | 42.3%
4 | CC(=O)c1ccc(-n2c(=O)n3n(c2=O)C2C(=CC3)C(C)(C)Oc3cc(OC(=O)N4CCN(C(=O)CN(C)C)CC4)ccc32)cc1 (centres unmarked) [Example 99, 2-(4-acetylphenyl)-7,7-dimethyl-1,3-dioxo-2,3,5,12b-tetrahydro-1H,7H-chromeno[4,3-c][1,2,4]triazolo[1,2-a]pyridazin-10-yl 4-(dimethylglycyl)piperazine-1-carboxylate hydrochloride] | 32 µM |  | 
5 | CN(C)C(=O)Oc1ccc2c(c1)OC(C)(C)C1=CCn3c(=O)n(-c4ccc(F)cc4)c(=O)n3C12 (centres unmarked) [Example 146, 2-(4-fluorophenyl)-7,7-dimethyl-1,3-dioxo-2,3,5,12b-tetrahydro-1H,7H-chromeno[4,3-c][1,2,4]triazolo[1,2-a]pyridazin-10-yl dimethylcarbamate] | > 80 µM |  | 
6 | CC(=O)c1ccc(-n2c(=O)n3n(c2=O)C2C(=CC3)C(C)(C)Oc3cc(NCC(F)(F)F)ccc32)cc1 (centres unmarked) [Example 17, 2-(4-acetylphenyl)-7,7-dimethyl-10-((2,2,2-trifluoroethyl)amino)-5,12b-dihydro-1H,7H-chromeno[4,3-c][1,2,4]triazolo[1,2-a]pyridazine-1,3(2H)-dione] | 8.2 µM |  | 
7 | CC1(C)Oc2cc(O)ccc2C2C1=CCn1c(=O)n(-c3ccc(C(=O)N4CCOCC4)cc3)c(=O)n12 (centres unmarked) [Example 53, 10-hydroxy-7,7-dimethyl-2-(4-(morpholine-4-carbonyl)phenyl)-5,12b-dihydro-1H,7H-chromeno[4,3-c][1,2,4]triazolo[1,2-a]pyridazine-1,3(2H)-dione] | 4.5 µM |  | 
8 | CC(=O)c1ccc(-n2c(=O)n3n(c2=O)C2C(=CC3)C(C)(C)Oc3c2cc(F)c(O)c3F)cc1 (centres unmarked) [Example 27, 2-(4-acetylphenyl)-9,11-difluoro-10-hydroxy-7,7-dimethyl-5,12b-dihydro-1H,7H-chromeno[4,3-c][1,2,4]triazolo[1,2-a]pyridazine-1,3(2H)-dione] |  | 29.9% | 
9 | CC(=O)c1ccc(-n2c(=O)n3n(c2=O)C2C(=CC3)C(C)(C)Oc3cc(N4CCN(C)CC4)ccc32)cc1 (centres unmarked) [Example 51, 2-(4-acetylphenyl)-7,7-dimethyl-10-(4-methylpiperazin-1-yl)-5,12b-dihydro-1H,7H-chromeno[4,3-c][1,2,4]triazolo[1,2-a]pyridazine-1,3(2H)-dione] | 33.5 µM |  | 
10 | CC(=O)c1ccc(-n2c(=O)n3n(c2=O)C2C(=CC3)C(C)(C)Oc3cc(S(C)(=O)=O)ccc32)cc1 (centres unmarked) [Example 4, 2-(4-acetylphenyl)-7,7-dimethyl-10-(methylsulfonyl)-5,12b-dihydro-1H,7H-chromeno[4,3-c][1,2,4]triazolo[1,2-a]pyridazine-1,3(2H)-dione] |  |  | 51.9%
11 | CC(=O)c1ccc(-n2c(=O)n3n(c2=O)C2C(=CC3)C(C)(C)Oc3cc(-c4ccncc4)ccc32)cc1 (centres unmarked) [Example 43, 2-(4-acetylphenyl)-7,7-dimethyl-10-(pyridin-4-yl)-5,12b-dihydro-1H,7H-chromeno[4,3-c][1,2,4]triazolo[1,2-a]pyridazine-1,3(2H)-dione] | 19.2 µM |  | 
12 | CC(=O)c1ccc(-n2c(=O)n3n(c2=O)C2C(=CC3)C(C)(C)Oc3c2cc(Br)c(O)c3Br)cc1 (centres unmarked) [Example 10, 2-(4-acetylphenyl)-9,11-dibromo-10-hydroxy-7,7-dimethyl-5,12b-dihydro-1H,7H-chromeno[4,3-c][1,2,4]triazolo[1,2-a]pyridazine-1,3(2H)-dione] |  |  | 98.4%
13 | CC(=O)c1ccc(-n2c(=O)n3n(c2=O)C2C(=CC3)C(C)(C)Oc3cc(OC(=O)N4CCNCC4)ccc32)cc1 (centres unmarked) [Example 67, 2-(4-acetylphenyl)-7,7-dimethyl-1,3-dioxo-2,3,5,12b-tetrahydro-1H,7H-chromeno[4,3-c][1,2,4]triazolo[1,2-a]pyridazin-10-yl piperazine-1-carboxylate hydrochloride] | 17.5 µM |  | 
14 | CNc1ccc2c(c1)OC(C)(C)C1=CCn3c(=O)n(-c4ccc(C(C)=O)cc4)c(=O)n3C12 (centres unmarked) [Example 32, 2-(4-acetylphenyl)-7,7-dimethyl-10-(methylamino)-5,12b-dihydro-1H,7H-chromeno[4,3-c][1,2,4]triazolo[1,2-a]pyridazine-1,3(2H)-dione] | 6.1 µM |  | 84.4%
15 | CC(=O)c1ccc(-n2c(=O)n3n(c2=O)C2C(=CC3)C(C)(C)Oc3cc(-c4cccnc4)ccc32)cc1 (centres unmarked) [Example 42, 2-(4-acetylphenyl)-7,7-dimethyl-10-(pyridin-3-yl)-5,12b-dihydro-1H,7H-chromeno[4,3-c][1,2,4]triazolo[1,2-a]pyridazine-1,3(2H)-dione] | 31.2 µM |  | 
16 | CC1(C)Oc2cc(NC3COC3)ccc2C2C1=CCn1c(=O)n(-c3ccc(F)cc3)c(=O)n12 (centres unmarked) [Example 35, 2-(4-fluorophenyl)-7,7-dimethyl-10-(oxetan-3-ylamino)-5,12b-dihydro-1H,7H-chromeno[4,3-c][1,2,4]triazolo[1,2-a]pyridazine-1,3(2H)-dione] | 4.8 µM |  | 96.7%
17 | CC(=O)c1ccc(-n2c(=O)n3n(c2=O)C2C(=CC3)C(C)(C)Oc3cc(OC(=O)N4C(C)CNCC4C)ccc32)cc1 (centres unmarked) [Example 100, 2-(4-acetylphenyl)-7,7-dimethyl-1,3-dioxo-2,3,5,12b-tetrahydro-1H,7H-chromeno[4,3-c][1,2,4]triazolo[1,2-a]pyridazin-10-yl 2,6-dimethylpiperazine-1-carboxylate hydrochloride] | 15.9 µM |  | 
18 | CC(=O)c1ccc(-n2c(=O)n3n(c2=O)C2C(=CC3)C(C)(C)Oc3cc(OC(=O)N4CCN(C(=O)CN(C)C)CC4(C)C)ccc32)cc1 (centres unmarked) [Example 119, 2-(4-acetylphenyl)-7,7-dimethyl-1,3-dioxo-2,3,5,12b-tetrahydro-1H,7H-chromeno[4,3-c][1,2,4]triazolo[1,2-a]pyridazin-10-yl 4-(dimethylglycyl)-2,2-dimethylpiperazine-1-carboxylate hydrochloride] | 9.5 µM |  | 
19 | CC(=O)c1ccc(-n2c(=O)n3n(c2=O)C2C(=CC3)C(C)(C)Oc3cc(O)c(OC(F)(F)F)cc32)cc1 (centres unmarked) [Example 25, 2-(4-acetylphenyl)-10-hydroxy-7,7-dimethyl-11-(trifluoromethoxy)-5,12b-dihydro-1H,7H-chromeno[4,3-c][1,2,4]triazolo[1,2-a]pyridazine-1,3(2H)-dione] |  | 42% | 
20 | CN1CCN(c2ccc3c(c2)OC(C)(C)C2=CCn4c(=O)n(-c5ccc(C(F)(F)F)cc5)c(=O)n4C23)CC1 (centres unmarked) [Example 49, 7,7-dimethyl-10-(4-methylpyrerazin-1-yl)-2-(4-(trifluoromethyl)phenyl)-5,12b-dihydro-1H,7H-chromeno[4,3-c][1,2,4]triazolo[1,2-a]pyridazine-1,3(2H)-dione] | 12.1 µM |  | 
21 | CC(=O)Nc1ccc2c(c1)OC(C)(C)C1=CCn3c(=O)n(-c4ccc(C(C)=O)cc4)c(=O)n3C12 (centres unmarked) [Example 3, N-(2-(4-acetylphenyl)-7,7-dimethyl-1,3-dioxo-2,3,5,12b-tetrahydroxy-1H,7H-chromeno[4,3-c][1,2,4]triazolo[1,2-a]pyridazin-10-yl)acetamide] |  |  | 16.9%
22 | CC(=O)c1ccc(-n2c(=O)n3n(c2=O)C2C(=CC3)C(C)(C)Oc3cc(OC(=O)N4CCNCC4(C)C)ccc32)cc1 (centres unmarked) [Example 118, 2-(4-acetylphenyl)-7,7-dimethyl-1,3-dioxo-2,3,5,12b-tetrahydro-1H,7H-chromeno[4,3-c][1,2,4]triazolo[1,2-a]pyridazin-10-yl 2,2-dimethylpiperazine-1-carboxylate hydrochloride] | 5.3 µM |  | 
23 | O=c1n(-c2ccccc2)c(=O)n2n1CC=C1C2c2ccc(O)cc2OC1(CF)CF (centres unmarked) [Example 1, 7,7-bis(fluoromethyl)-10-hydroxy-2-phenyl-5,12b-dihydro-1H,7H-chromeno[4,3-c][1,2,4]triazolo[1,2-a]pyridazine-1,3(2H)-dione] |  |  | 80.4%
24 | CC(=O)c1ccc(-n2c(=O)n3n(c2=O)C2C(=CC3)C(C)(C)Oc3cc(-c4cc(C)nn4C)ccc32)cc1 (centres unmarked) [Example 38, 2-(4-acetylphenyl)-10-(1,3-dimethyl-1H-pyrazol-5-yl)-7,7-dimethyl-5,12b-dihydro-1H,7H-chromeno[4,3-c][1,2,4]triazolo[1,2-a]pyridazine-1,3(2H)-dione] | 31.6 µM |  | 
